Results reported in patent US20240239781A1, “1H-PYRAZOLE DERIVATIVES AS SIGMA LIGANDS” (ACONDICIONAMIENTO TARRASENSE, priority 2021, published 2024).

Assays:
human σ1 receptor = target: T1, human σ1 receptor (Homo sapiens, UniProt Q99720); test: Human σ1 receptor radioligand assay ([3H](+)-pentazocine, transfected HEK-293 membranes); details: class scale, read-out: Binding σ-1 Ki
T1 construct: expressed in transfected cells; host or cells: HEK-293
Protocol: Transfected HEK-293 membranes (7 μg) were incubated with 5 nM of [^3H](+)-pentazocine in assay buffer containing Tris-HCl 50 mM at pH 8. NBS (non-specific binding) was measured by adding 10 μM haloperidol. The binding of the test compound was measured at either one concentration (% inhibition at 1 or 10 μM) or five different concentrations to determine affinity values (Ki). Plates were incubated at 37° C. for 120 minutes. After the incubation period, the reaction mix was then transferred to MultiScreen HTS, FC plates (Millipore), filtered and plates were washed 3 times with ice-cold 10 mM Tris-HCL (pH7.4). Filters were dried and counted at approximately 40% efficiency in a MicroBeta scintillation counter (Perkin-Elmer) using EcoScint liquid scintillation cocktail.

human σ2/TMEM97 receptor = target: T2, human σ2/TMEM97 receptor (Homo sapiens, UniProt Q5BJF2); test: Binding assay to human σ2/TMEM97 receptor ([3H]-DTG, transfected HEK-293 membranes); details: class scale, read-out: Binding σ-2 Ki
T2 construct: expressed in transfected cells; host or cells: HEK-293
Protocol: Transfected HEK-293 membranes (15 μg) were incubated with 10 nM [^3H]-1,3-Di-o-tolylguanidine (DTG) in assay buffer containing Tris-HCl 50 mM at pH 8.0. NSB (non-specific binding) was measured by adding 10 μM haloperidol. The binding of the test compound was measured at either one concentration (% inhibition at 1 or 10 μM) or five different concentrations to determine affinity values (Ki). Plates were incubated at 25° C. for 120 minutes. After the incubation period, the reaction mix was transferred to MultiScreen HTS, FC plates (Millipore), filtered and washed 3 times with ice-cold 10 mM Tris-HCL (pH 8.0). Filters were dried and counted at approximately 40% efficiency in a MicroBeta scintillation counter (Perkin-Elmer) using EcoScint liquid scintillation cocktail.

T2 sequence (Q5BJF2 whole entry): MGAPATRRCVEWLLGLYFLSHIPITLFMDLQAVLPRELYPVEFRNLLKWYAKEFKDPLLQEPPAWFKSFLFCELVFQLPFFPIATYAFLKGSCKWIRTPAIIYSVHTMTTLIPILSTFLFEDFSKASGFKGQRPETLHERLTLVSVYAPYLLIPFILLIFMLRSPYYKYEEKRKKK
T1 sequence (Q99720 whole entry): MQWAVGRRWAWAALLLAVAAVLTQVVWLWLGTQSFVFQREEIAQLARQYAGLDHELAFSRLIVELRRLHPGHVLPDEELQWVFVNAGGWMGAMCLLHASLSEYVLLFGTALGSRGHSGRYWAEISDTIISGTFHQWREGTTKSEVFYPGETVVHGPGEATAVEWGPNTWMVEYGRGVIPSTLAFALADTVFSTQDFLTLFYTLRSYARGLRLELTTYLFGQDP

| Ki (human σ1 receptor) | Ki (human σ2/TMEM97 receptor) | Structure (SMILES) |
| --- | --- | --- |
| < 100 nM | 100 to 500 nM | Cc1cc(-c2nn(C)c(Cl)c2CN2CCC3(C2)CN(Cc2ccccc2)C3)no1 [Example 60, 3-(4-((2-Benzyl-2,6-diazaspiro[3.4]octan-6-yl)methyl)-5-chloro-1-methyl-1H-pyrazol-3-yl)-5-methylisoxazole] |
| 100 to 500 nM | < 100 nM | Cc1cc(-c2nn(C)c(Cl)c2CN2CCC3(C2)CN(CCc2ccccc2)C3)no1 [Example 61, 3-(5-Chloro-1-methyl-4-((2-phenethyl-2,6-diazaspiro[3.4]octan-6-yl)methyl)-1H-pyrazol-3-yl)-5-methylisoxazole] |
| 500 to 1000 nM | 100 to 500 nM | Cc1cc(-c2nn(C)c(Cl)c2CN2CCC(C3(NCCC(C)C)CC3)C2)no1 (stereo not shown) [Example 62, 1-(1-((5-Chloro-1-methyl-3-(5-methylisoxazol-3-yl)-1H-pyrazol-4-yl)methyl)pyrrolidin-3-yl)-N-isopentylcyclopropanamine] |
| < 100 nM | 100 to 500 nM | Cc1cc(-c2nn(C)c(Cl)c2CN2CCCC(C3(NCCC(C)C)CC3)C2)no1 (stereo not shown) [Example 63, 1-(1-((5-Chloro-1-methyl-3-(5-methylisoxazol-3-yl)-1H-pyrazol-4-yl)methyl)piperidin-3-yl)-N-isopentylcyclopropanamine] |
| 100 to 500 nM | 100 to 500 nM | Cc1cc(-c2nn(C)c(Cl)c2CN2CCCOC(CNCCC(C)C)C2)no1 (stereo not shown) [Example 64, N-((4-((5-Chloro-1-methyl-3-(5-methylisoxazol-3-yl)-1H-pyrazol-4-yl)methyl)-1,4-oxazepan-2-yl)methyl)-3-methylbutan-1-amine] |
| 100 to 500 nM | 100 to 500 nM | Cc1cc(-c2nn(C)c(Cl)c2CN2CCC3(CC2)CCN(C(C)c2ccccc2)CC3)no1 (stereo not shown) [Example 65, 3-(5-Chloro-1-methyl-4-((9-(1-phenylethyl)-3,9-diazaspiro[5.5]undecan-3-yl)methyl)-1H-pyrazol-3-yl)-5-methylisoxazole] |
| < 100 nM | < 100 nM | Cc1cc(-c2nn(C)c(Cl)c2CN2CCC3(CCN(Cc4ccccc4)CC3)CC2)no1 [Example 66, 3-(4-((9-Benzyl-3,9-diazaspiro[5.5]undecan-3-yl)methyl)-5-chloro-1-methyl-1H-pyrazol-3-yl)-5-methylisoxazole] |
| 500 to 1000 nM | < 100 nM | Cc1cc(-c2nn(C)c(Cl)c2CN2CCC3(CCN(CCC(C)C)CC3)CC2)no1 [Example 67, 3-(5-Chloro-4-((9-isopentyl-3,9-diazaspiro[5.5]undecan-3-yl)methyl)-1-methyl-1H-pyrazol-3-yl)-5-methylisoxazole] |
| 100 to 500 nM | < 100 nM | Cc1cc(-c2nn(C)c(Cl)c2CN2CCC3(CC2)CCN(CC(C)(C)C)CC3)no1 [Example 68, 3-(5-Chloro-1-methyl-4-((9-neopentyl-3,9-diazaspiro[5.5]undecan-3-yl)methyl)-1H-pyrazol-3-yl)-5-methylisoxazole] |
| < 100 nM | < 100 nM | Cc1cc(-c2nn(C)c(Cl)c2CN2CC[C@]3(CCN(CCC(C)(C)C)C3)C2)no1 [Example 69, (S)-3-(5-Chloro-4-((7-(3,3-dimethylbutyl)-2,7-diazaspiro[4.4]nonan-2-yl)methyl)-1-methyl-1H-pyrazol-3-yl)-5-methylisoxazole] |
| < 100 nM | < 100 nM | Cc1cc(-c2nn(C)c(Cl)c2CN2CC[C@@]3(CCN(CCC(C)(C)C)C3)C2)no1 [Example 70, (R)-3-(5-chloro-4-((7-(3,3-dimethylbutyl)-2,7-diazaspiro[4.4]nonan-2-yl)methyl)-1-methyl-1H-pyrazol-3-yl)-5-methylisoxazole] |
| > 1000 nM | 100 to 500 nM | Cc1cc(-c2nn(C)c(Cl)c2CN2CC[C@H](CNCCc3ccccc3)C2)no1 [Example 71, (R)-N-((1-((5-Chloro-1-methyl-3-(5-methylisoxazol-3-yl)-1H-pyrazol-4-yl)methyl)pyrrolidin-3-yl)methyl)-2-phenylethanamine] |
| 500 to 1000 nM | 100 to 500 nM | Cc1cc(-c2nn(C)c(Cl)c2CN2CC[C@@H](CNCCc3ccccc3)C2)no1 [Example 72, (S)-N-((1-((5-chloro-1-methyl-3-(5-methylisoxazol-3-yl)-1H-pyrazol-4-yl)methyl)pyrrolidin-3-yl)methyl)-2-phenylethanamine] |
| 100 to 500 nM | < 100 nM | Cc1cc(-c2nn(C)c(Cl)c2CN2CC[C@@H](CNCCC(C)(C)C)C2)no1 [Example 73, (S)-N-((1-((5-Chloro-1-methyl-3-(5-methylisoxazol-3-yl)-1H-pyrazol-4-yl)methyl)pyrrolidin-3-yl)methyl)-3,3-dimethylbutan-1-amine] |
| 100 to 500 nM | < 100 nM | Cc1cc(-c2nn(C)c(Cl)c2CN2CC[C@H](CNCCC(C)(C)C)C2)no1 [Example 74, (R)-N-((1-((5-chloro-1-methyl-3-(5-methylisoxazol-3-yl)-1H-pyrazol-4-yl)methyl)pyrrolidin-3-yl)methyl)-3,3-dimethylbutan-1-amine] |
| 500 to 1000 nM | < 100 nM | Cc1cc(-c2nn(C)c(Cl)c2CN2CC[C@]3(C2)C[C@H](NCCC(C)(C)C)C3)no1 [Example 75, (2s,4r)-6-((5-Chloro-1-methyl-3-(5-methylisoxazol-3-yl)-1H-pyrazol-4-yl)methyl)-N-(3,3-dimethylbutyl)-6-azaspiro[3.4]octan-2-amine] |
| 100 to 500 nM | 100 to 500 nM | Cc1cc(-c2nn(C)c(Cl)c2CN2CC[C@]3(C2)C[C@@H](NCCC(C)(C)C)C3)no1 [Example 76] |
| 100 to 500 nM | < 100 nM | Cc1cc(-c2nn(C)c(Cl)c2CN2C[C@@H](CNCCC(C)(C)C)[C@H](C)C2)no1 [Example 77, N-(((3R,4S)-1-((5-Chloro-1-methyl-3-(5-methylisoxazol-3-yl)-1H-pyrazol-4-yl)methyl)-4-methylpyrrolidin-3-yl)methyl)-3,3-dimethylbutan-1-amine] |
| 100 to 500 nM | < 100 nM | Cc1cc(-c2nn(C)c(Cl)c2CN2C[C@H](CNCCC(C)(C)C)[C@@H](C)C2)no1 [Example 78, N-(((3S,4R)-1-((5-Chloro-1-methyl-3-(5-methylisoxazol-3-yl)-1H-pyrazol-4-yl)methyl)-4-methylpyrrolidin-3-yl)methyl)-3,3-dimethylbutan-1-amine] |
| > 1000 nM | 100 to 500 nM | Cc1cc(-c2nn(C)c(Cl)c2CN2CCCCC(NCCN3CCCCC3)C2)no1 (stereo not shown) [Example 79, 1-((5-Chloro-1-methyl-3-(5-methylisoxazol-3-yl)-1H-pyrazol-4-yl)methyl)-N-(2-(piperidin-1-yl)ethyl)azepan-3-amine] |
| 100 to 500 nM | 500 to 1000 nM | Cc1cc(-c2nn(C)c(Cl)c2CN2CCCCC(N(C)CCC(C)C)C2)no1 (stereo not shown) [Example 80, 1-((5-Chloro-1-methyl-3-(5-methylisoxazol-3-yl)-1H-pyrazol-4-yl)methyl)-N-isopentyl-N-methylazepan-3-amine] |
| 100 to 500 nM | 100 to 500 nM | Cc1cc(-c2nn(C)c(Cl)c2CN2CCCCC(N(C)CC3CCOCC3)C2)no1 (stereo not shown) [Example 81, 1-((5-Chloro-1-methyl-3-(5-methylisoxazol-3-yl)-1H-pyrazol-4-yl)methyl)-N-methyl-N-((tetrahydro-2H-pyran-4-yl)methyl)azepan-3-amine] |
| 500 to 1000 nM | 100 to 500 nM | Cc1cc(-c2nn(C)c(Cl)c2CN2CCCCC(N(C)CCN3CCCCC3)C2)no1 (stereo not shown) [Example 82, 1-((5-Chloro-1-methyl-3-(5-methylisoxazol-3-yl)-1H-pyrazol-4-yl)methyl)-N-methyl-N-(2-(piperidin-1-yl)ethyl)azepan-3-amine] |
